Among the data in patent US11332459B2 (TEIJIN PHARMA LIMITED, priority 2017, dated 2022) are IC50 values, retold here.

Structures are written as SMILES. Counter-ions that a name gives are not always drawn. A value given as a limit tells only on which side of the number the result lay.

This assay has as its target T1, human TRPC6 (Homo sapiens, UniProt Q9Y210).
T1 construct: expressed in transfected cells
T1 sequence (Q9Y210 1-931): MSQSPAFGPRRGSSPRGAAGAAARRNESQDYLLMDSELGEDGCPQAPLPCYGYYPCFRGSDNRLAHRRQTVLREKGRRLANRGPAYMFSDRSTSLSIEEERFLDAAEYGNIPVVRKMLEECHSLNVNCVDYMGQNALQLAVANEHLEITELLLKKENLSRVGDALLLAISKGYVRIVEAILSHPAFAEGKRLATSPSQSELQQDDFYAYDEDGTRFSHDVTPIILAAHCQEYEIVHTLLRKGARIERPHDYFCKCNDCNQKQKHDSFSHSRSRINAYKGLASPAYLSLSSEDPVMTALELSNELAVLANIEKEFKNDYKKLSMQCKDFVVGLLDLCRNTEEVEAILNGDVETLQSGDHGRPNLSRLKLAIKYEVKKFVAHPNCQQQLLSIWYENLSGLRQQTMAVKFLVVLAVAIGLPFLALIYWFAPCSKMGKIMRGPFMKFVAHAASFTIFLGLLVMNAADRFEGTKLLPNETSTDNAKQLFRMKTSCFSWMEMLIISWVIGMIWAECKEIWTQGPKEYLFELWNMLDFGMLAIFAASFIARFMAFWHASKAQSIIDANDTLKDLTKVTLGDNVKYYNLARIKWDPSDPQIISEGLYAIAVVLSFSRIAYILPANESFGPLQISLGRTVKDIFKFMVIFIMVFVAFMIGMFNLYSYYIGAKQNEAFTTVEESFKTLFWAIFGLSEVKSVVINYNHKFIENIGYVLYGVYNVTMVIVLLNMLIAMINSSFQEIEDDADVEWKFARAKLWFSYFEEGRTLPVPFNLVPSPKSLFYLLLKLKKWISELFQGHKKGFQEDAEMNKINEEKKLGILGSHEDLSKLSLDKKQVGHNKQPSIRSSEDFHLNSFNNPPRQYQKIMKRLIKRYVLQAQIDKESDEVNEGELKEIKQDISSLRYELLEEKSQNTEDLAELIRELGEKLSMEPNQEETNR
Briefly: TRPC6 calcium flux assay (FLIPR, OAG-stimulated calcium influx). The format is cell-based. The following applies: HEK293 cells stably transfected with human TRPC6, read-out: hTRPC6 Potency. The procedure, abridged:
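IC50 derived by plotting background-corrected peak fluorescence (180 s window, normalized to OAG-triggered signal vs buffer) against dose. Stable human TRPC6 HEK293 line was dye-loaded, exposed to compound 25 min, then challenged with 50 uM final OAG in 2 mM Ca2+ HEPES buffer pH 7.2, 0.5% DMSO.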
Consider `CCC1COCCN1C(=O)Cn1c(N2CC[C@@H](F)[C@H](N)C2)nc2ccc(F)cc21` (stereo partly drawn) [Example 684, 2-(2-((3R,4R)-3-amino-4-fluoropiperidin-1-yl)-6-fluoro-1H-benzo[d]imidazol-1-yl)-1-(3-ethylmorpholino)ethan-1-one], for which the IC50 is 524 nM.

For the molecule `N[C@@H]1CN(c2nc3cc(F)c(F)cc3n2[C@H]2CCN(C3CCOCC3)C2=O)CC[C@H]1F` [Example 548, (S)-3-(2-((3R,4R)-3-amino-4-fluoropiperidin-1-yl)-5,6-difluoro-1H-benzo[d]imidazol-1-yl)-1-(tetrahydro-2H-pyran-4-yl)pyrrolidin-2-one], the IC50 was 382 nM.

`N[C@@H]1CN(c2nc3c(F)cc(F)cc3n2Cc2ncc(Cl)cn2)CC[C@H]1F` [Example 258, (3R,4R)-1-(1-((5-chloro-2-pyrimidinyl)methyl)-4,6-difluoro-1H-benzimidazol-2-yl)-4-fluoro-3-piperidinamine]: the IC50 amounted to 0.288 nM.

For `CC(C)NC(=O)Cn1c(N2CC[C@@H](F)[C@H](N)C2)nc2cc(F)c(F)cc21` [Example 235, 2-(2-((3R,4R)-3-amino-4-fluoropiperidin-1-yl)-5,6-difluoro-1H-benzo[d]imidazol-1-yl)-N-isopropylacetamide], the IC50 was found to be 150 nM.

With `NC(=O)c1cnc(Cn2c(N3CC[C@H](F)[C@H](N)C3)nc3ccc(C(F)(F)F)cc32)cn1` [Example 122, 5-((2-((3R,4S)-3-amino-4-fluoro-1-piperidinyl)-6-(trifluoromethyl)-1H-benzimidazol-1-yl)methyl)-2-pyrazinecarboxamide], the IC50 came to 29.9 nM.

In the case of `N[C@@H]1CN(c2nc3cc(F)c(F)cc3n2Cc2ccc(F)c(Cl)c2)CC[C@H]1F` [Example 349, (3R,4R)-1-(1-(3-chloro-4-fluorobenzyl)-5,6-difluoro-1H-benzimidazol-2-yl)-4-fluoro-3-piperidinamine], the IC50 turned out to be 215 nM.

Take `CN1CC[C@@H](n2c(N3CC[C@@H](F)[C@H](N)C3)nc3cc(F)c(F)cc32)C1=O` [Example 246, (R)-3-(2-((3R,4R)-3-amino-4-fluoropiperidin-1-yl)-5,6-difluoro-1H-benzo[d]imidazol-1-yl)-1-methylpyrrolidin-2-one]: the IC50 stood at 2920 nM.

As for `N[C@@H]1CN(c2nc3cc(F)c(F)cc3n2CC(=O)N2C[C@H]3C[C@H]3C2)CC[C@H]1F` [Example 607, 2-(2-((3R,4R)-3-amino-4-fluoropiperidin-1-yl)-5,6-difluoro-1H-benzo[d]imidazol-1-yl)-1-((1R,5S)-3-azabicyclo[3.1.0]hexan-3-yl)ethanone], the IC50 was 14.3 nM.

In the case of `N#Cc1ccc(Cn2c(N3CCC[C@@H](N)C3)nc3ccccc32)c(F)c1` [Example 383, (R)-4-((2-(3-aminopiperidin-1-yl)-1H-benzo[d]imidazol-1-yl)methyl)-3-fluorobenzonitrile], the IC50 amounted to 319 nM.

`N[C@@H]1CN(c2nc3cc(F)c(F)cc3n2Cc2ccc(Cl)cn2)CC[C@H]1F` [Example 227, (3R,4R)-1-(1-((5-chloropyridin-2-yl)methyl)-5,6-difluoro-1H-benzo[d]imidazol-2-yl)-4-fluoropiperidin-3-amine hydrochloride]: the IC50 was 0.328 nM.

`CN(CC(F)(F)F)C(=O)Cn1c(N2CC[C@@H](F)[C@H](N)C2)nc2cc(C(F)(F)F)ccc21` [Example 580, 2-(2-((3R,4R)-3-amino-4-fluoropiperidin-1-yl)-5-(trifluoromethyl)-1H-benzo[d]imidazol-1-yl)-N-methyl-N-(2,2,2-trifluoroethyl)acetamide]: the IC50 turned out to be 365 nM.

For `N#Cc1ccc(Cn2c(N3CCC[C@@H](N)C3)nc3ccccc32)nc1` [Example 291, (R)-6-((2-(3-aminopiperidin-1-yl)-1H-benzo[d]imidazol-1-yl)methyl)nicotinonitrile], the IC50 was greater than 3750 nM.

As to `N[C@@H]1CN(c2nc3c(F)cc(F)cc3n2Cc2ccc(F)cn2)CC[C@H]1F` [Example 33, (3R,4R)-1-(4,6-difluoro-1-((5-fluoropyridin-2-yl)methyl)-1H-benzo[d]imidazol-2-yl)-4-fluoropiperidin-3-amine], the IC50 was 0.432 nM.

Regarding `N#Cc1ccc(Cn2c(N3CCC[C@@](N)(C(N)=O)C3)nc3ccccc32)nc1` [Example 102, (S)-3-amino-1-(1-((5-cyanopyridin-2-yl)methyl)-1H-benzo[d]imidazol-2-yl)piperidine-3-carboxamide], the IC50 was greater than 3750 nM.

For `C[C@H](C#N)N(C)C(=O)Cn1c(N2CC[C@@H](F)[C@H](N)C2)nc2cc(F)c(F)cc21` [Example 603, 2-(2-((3R,4R)-3-amino-4-fluoropiperidin-1-yl)-5,6-difluoro-1H-benzo[d]imidazol-1-yl)-N-((R)-1-cyanoethyl)-N-methylacetamide], the IC50 was found to be 6.73 nM.

With `N[C@@H]1CN(c2nc3cc(F)c(F)cc3n2CC(=O)N2CC3CC2CO3)CC[C@H]1F` (stereo partly drawn) [Example 619, 2-(2-((3R,4R)-3-amino-4-fluoropiperidin-1-yl)-5,6-difluoro-1H-benzo[d]imidazol-1-yl)-1-(2-oxa-5-azabicyclo[2.2.1]heptan-5-yl)ethanone], the IC50 stood at 57.4 nM.

As for `CN(CC(F)(F)F)C(=O)Cn1c(N2CC[C@@H](F)[C@H](N)C2)nc2c(F)cc(F)cc21` [Example 558, 2-(2-((3R,4R)-3-amino-4-fluoropiperidin-1-yl)-4,6-difluoro-1H-benzo[d]imidazol-1-yl)-N-methyl-N-(2,2,2-trifluoroethyl)acetamide], the IC50 turned out to be 16.1 nM.

Take `CNC(=O)C1CCCN(C(=O)Cn2c(N3CC[C@@H](F)[C@H](N)C3)nc3cc(F)c(F)cc32)C1` (stereo partly drawn) [Example 654, 1-(2-(2-((3R,4R)-3-amino-4-fluoropiperidin-1-yl)-5,6-difluoro-1H-benzo[d]imidazol-1-yl)acetyl)-N-methylpiperidine-3-carboxamide]: the IC50 was greater than 3750 nM.

For `N#Cc1ccc(Cn2c(N3CC[C@H](F)[C@H](N)C3)nc3ccccc32)nc1` [Example 73, 6-((2-((3R,4S)-3-amino-4-fluoropiperidin-1-yl)-1H-benzo[d]imidazol-1-yl)methyl)nicotinonitrile], the IC50 was 1.09 nM.

Take `N#Cc1ccc(Cn2c(N3CCC[C@H](N)C3)nc3cc(F)ccc32)nc1` [Example 46, (S)-6-((2-(3-aminopiperidin-1-yl)-5-fluoro-1H-benzo[d]imidazol-1-yl)methyl)nicotinonitrile hydrochloride]: the IC50 is 1.78 nM.

For the molecule `N#Cc1ccc(Cn2c(N3CC[C@@H](F)[C@H](N)C3)nc3ccncc32)cc1` [Example 413, 4-((2-((3R,4R)-3-amino-4-fluoropiperidin-1-yl)-3H-imidazo[4,5-c]pyridin-3-yl)methyl)benzonitrile], the IC50 was 221 nM.

`Cc1nc(C)c(Cn2c(N3CC[C@@H](F)[C@H](N)C3)nc3cc(F)ccc32)s1` [Example 596, (3R,4R)-1-(1-((2,4-dimethylthiazol-5-yl)methyl)-5-fluoro-1H-benzo[d]imidazol-2-yl)-4-fluoropiperidin-3-amine]: the IC50 was greater than 3750 nM.

On to `N[C@@H]1CN(c2nc3cc(F)c(F)cc3n2Cc2c(Cl)cccc2Cl)CC[C@H]1F` [Example 265, (3R,4R)-1-(1-(2,6-dichlorobenzyl)-5,6-difluoro-1H-benzimidazol-2-yl)-4-fluoro-3-piperidinamine], for which the IC50 worked out at 2860 nM.

As for `N[C@@H]1CN(c2nc3cc(F)c(F)cc3n2CC(=O)N2CCCCCCC2)CC[C@H]1F` [Example 510, 2-(2-((3R,4R)-3-amino-4-fluoropiperidin-1-yl)-5,6-difluoro-1H-benzo[d]imidazol-1-yl)-1-(azocan-1-yl)ethan-1-one], the IC50 is 139 nM.

Take `C[C@H](c1ccc(C#N)cn1)n1c(N2CC[C@@H](F)[C@H](N)C2)nc2ccc(C#N)cc21` [Example 223, 2-((3R,4R)-3-amino-4-fluoropiperidin-1-yl)-1-((R)-1-(5-cyanopyridin-2-yl)ethyl)-1H-benzo[d]imidazole-6-carbonitrile hydrochloride]: the IC50 is 51.5 nM.

In the case of `COc1ccc2nc(N3CCC(F)(F)[C@H](N)C3)n(Cc3ccc(C#N)cc3)c2c1` [Example 406, (R)-4-((2-(3-amino-4,4-difluoropiperidin-1-yl)-6-methoxy-1H-benzo[d]imidazol-1-yl)methyl)benzonitrile], the IC50 was found to be 0.447 nM.

For `N#Cc1ccc(Cn2c(N3CC[C@@H](F)[C@H](N)C3)nc3cnccc32)cc1` [Example 412, 4-((2-((3R,4R)-3-amino-4-fluoropiperidin-1-yl)-1H-imidazo[4,5-c]pyridin-1-yl)methyl)benzonitrile], the IC50 was found to be 322 nM.
